Reference: US20100144790A1, “Use of Thalidomide for Alzheimers Disease Treatment and Prevention” (priority 2008, published 2010)
“Also recorded” adds a separate entry of the source.

Legend:
[1] = tested on: Aβ deposition in the brain of APP23 mice; experiment: Aβ plaque number by 6E10 immunostaining in APP23 mice after Thalidomide injection; type: in vivo, mouse; details: Thalidomide 100 mg/kg
Protocol: (§1) Thalidomide is an effective BACE1 inhibitor. The Thalidomide used to test effectiveness was ordered from Sigma, T144, 1.0 gram. The Thalidomide dose was 100 mg/kg/day. The application of Thalidomide to the mice born by the same mother was during the period from 9 months old to 12 months old. The preparation of Thalidomide was at first to be dissolved in DMSO and then diluted with saline. The injection into peritoneal cavity was performed once a day for 3 months. In general, the average weight of the mice was 30 grams. The volume of injection was 100 mg/kg/day×0.03 Kg/mouse=3 mg/mouse/day (if 10 mg/ml of Thalidomide, then 300 ul/mouse/day). […] The amyloid plaque number was 84.6/section in untreated control APP23 mice, where as there was only 3.91/section in the Thalidomide-treated APP23 mice. Use of Thalidomide in the transgenic mice reduced Aβ plaque formation and Aβ production, which is correlated to the reduced BACE1 enzymatic activity and protein level. […]
(§2) Quantitation of immunoreactive structures 30-μm serial sagittal sections through the entire rostrocaudal extent of the hippocampus were cut on a cryostat. […] For each section, we delineated a 400-μm^2 area in CA1 and in the entorhinal cortex and counted all NeuN-immunoreactive cells within that 400-μm^2 box. The mean sum of neurons was counted per animal (n=10). […] We also measured the diameter of each counted plaque. […]

BACE1 [2] = target: T1, BACE1 (Mus musculus, UniProt P56818); experiment: BACE1 enzymatic activity in frontal cortex crude extracts of Thalidomide-treated APP23 mice (fluorescent-labeled APP peptide); type: in vivo; details: Thalidomide 100 mg/kg
T1 construct: the frontal cortices of 12-months old APP23 transgenic mice after Thalidomide treatment with doses of 100 mg/kg for one month were obtained for the enzymatic crude extracts; from tissue; host or cells: frontal cortex / brain homogenate of APP23 transgenic mice (C57BL/6 background)
T1 sequence (P56818 46-501): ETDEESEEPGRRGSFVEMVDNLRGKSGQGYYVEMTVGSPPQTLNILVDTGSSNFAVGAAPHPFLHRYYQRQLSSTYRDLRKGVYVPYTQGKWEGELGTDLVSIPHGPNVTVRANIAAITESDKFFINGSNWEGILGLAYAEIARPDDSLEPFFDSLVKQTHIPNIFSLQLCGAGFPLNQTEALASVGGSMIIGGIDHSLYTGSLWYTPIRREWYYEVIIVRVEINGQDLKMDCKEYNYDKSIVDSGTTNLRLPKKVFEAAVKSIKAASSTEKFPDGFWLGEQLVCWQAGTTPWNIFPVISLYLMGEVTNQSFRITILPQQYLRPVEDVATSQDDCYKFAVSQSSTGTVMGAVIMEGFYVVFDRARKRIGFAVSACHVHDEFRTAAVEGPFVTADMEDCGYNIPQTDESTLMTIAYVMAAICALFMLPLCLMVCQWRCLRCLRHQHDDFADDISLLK
Protocol: Thalidomide is an effective BACE1 inhibitor. The Thalidomide used to test effectiveness was ordered from Sigma, T144, 1.0 gram. The Thalidomide dose was 100 mg/kg/day. The application of Thalidomide to the mice born by the same mother was during the period from 9 months old to 12 months old. The preparation of Thalidomide was at first to be dissolved in DMSO and then diluted with saline. The injection into peritoneal cavity was performed once a day for 3 months. In general, the average weight of the mice was 30 grams. The volume of injection was 100 mg/kg/day×0.03 Kg/mouse=3 mg/mouse/day (if 10 mg/ml of Thalidomide, then 300 ul/mouse/day). […]
BACE1 enzymatic activity was measured by using an aliquot of brain homogenate from APP23 and the wild-type mice. […] An equal amount of protein was mixed with 100 μl of substrate, and fluorescence intensity was measured with a microplate reader (BioTek) at an excitation wavelength of 320 nm and an emission wavelength of 390 nm.
To evaluate the BACE1 enzymatic activity level under the impact of Thalidomide, the frontal cortices of 12-months old APP23 transgenic mice after Thalidomide treatment with doses of 100 mg/kg for one month were obtained for the enzymatic crude extracts. […] The specific fluorescence was detected when labeled APPwt or APPsw peptides were cleaved by BACE1. […]

BACE1 [3] = experiment: BACE1 protein level in Thalidomide-treated APP23 mice; type: in vivo, mouse; details: Thalidomide 100 mg/kg/day i.p.
Protocol: as §1, with “level. Thus Thalidomide can decrease CSF BACE1 and CSF Aβ in AD and MCI patients.” for “level.”
One BACE1 ELISA used a combination of a highly specific anti-BACE1 polyclonal antibody SECB2 as a capture antibody and biotinylated anti-BACE1 polyclonal antibody SECB1 as a detection antibody. […] The concentration of BACE1 will be calculated from the standard curve and expressed as μg/ml.

APP23 transgenic mice [4] = experiment: Neuronal loss in Thalidomide-treated APP23 mice; type: in vivo, mouse; details: Thalidomide 100 mg/kg/day i.p.
Protocol: as §1, §2

APP23 transgenic mice [5] = experiment: Aβ-related memory deficits in Thalidomide-treated APP23 mice; type: in vivo, mouse; details: Thalidomide 100 mg/kg/day i.p.
Protocol: The Thalidomide used to test effectiveness was ordered from Sigma, T144, 1.0 gram. […] The application of Thalidomide to the mice born by the same mother was during the period from 9 months old to 12 months old. The preparation of Thalidomide was at first to be dissolved in DMSO and then diluted with saline. The injection into peritoneal cavity was performed once a day for 3 months. In general, the average weight of the mice was 30 grams. […] The Hole-board memory task was used to measure a mouse's ability to remember which one out of four equidistant holes was baited with food. Two photobeam apparatuses were used with a hole board for assessing directed exploration in mice for behavioral tests. A tested mouse (n=10 for each group) was placed in the center of the hole-board and the number of nose pokes was automatically registered for 5 min. […] The number of head dips, time spent head-dipping, and the number of rearings was recorded. A comprehensive cognitive performance was determined by calculating the mean number of correct pokes per trial that mouse made each day. Cognition was expressed as the percentage of correct pokes. The measurements in the hole-board test were analyzed by unpaired t test. […] A recognition index was calculated for each mouse, expressed as the ratio (100TB)×(TA+TB), where TA and TB are the time spent during the second trial on subject A and subject B, respectively.

Aβ production = Aβ production in Thalidomide-treated APP23 mice; type: in vivo, mouse; details: Thalidomide 100 mg/kg/day i.p.
Protocol: as §1
APP23 and wild-type mice (n=10 per group) were killed at 12 and 24 mo of age, and one hemisphere of the brain was homogenized in homogenization buffer (250 mM sucrose, 20 mM Tris-HCl, pH 7.4, 1 mM EDTA, and 1 mM EGTA). […] Protein concentration was measured by protein assay (Bio-Rad Laboratories). […] Aβ40 and Aβ42 were measured with an Aβ40 and Aβ42 ELISA kit (Biosource International). […]

[6] = cited from earlier work
BACE1 [7] = target: T2, BACE1 (Homo sapiens, UniProt P56817); experiment: BACE1 enzymatic activity of AD brain crude extracts with caspase inhibitor; type: biochemical; details: AD brain enzymatic crude extracts incubated with the caspase inhibitor
T2 construct: from tissue; host or cells: post-mortem brain of sporadic AD patients (temporal cortex / hippocampus samples)
T2 sequence (P56817 46-501): as the sequence (P56818 46-501) above, with S6P, I162V, I165L, T180S, A182V, V340I, A393L, H443Q counted along it
Description: BACE1 enzymatic activity level increased in brains of AD patients. Fluorescent transfer peptides bearing the APP wild-type peptide (APPwt) BACE1 cleavage site (KTEEISEVKMDAE) or APP Swedish mutation (APPsw) BACE1 cleavage site ([…]) were used to test BACE1 enzymatic activity. These peptides were also labeled with methoxycoumarin acetic acid (MCA) and dinitrophenyl (DNP). As a positive control, we transiently transfected BACE1 cDNA or empty vector into HEK293 cells, and observed high-intensity fluorescence with BACE1-transfected cells (FIG. 2A). Enzymatic activity, represented by the fluorescent intensity of APPwt and APPsw fragments, increased in AD brain samples compared with ND samples (FIG. 2A). Further, more APPsw fragment than the APPwt fragment was cleaved by crude extracts from AD brain (FIG. 2A).

Row | Compound | Aβ plaque number ([1]; 12 months of age, frontal cortex, 6E10 immunostaining, untreated APP23 84.6/section) | Aβ deposition / Aβ plaques (in words) ([1]; versus untreated APP23 mice) | BACE1 enzymatic activity level (in words) (BACE1 [2]; 12 months old APP23 mice, frontal cortex extracts, versus untreated APP23 mice) | decrease in BACE1 activity levels (BACE1 [2]; both the in vitro and in vivo studies, APP23 mice) [%] | BACE1 protein level (in words) (BACE1 [3]) | neuronal loss (in words) (APP23 transgenic mice [4]) | Aβ-related memory deficits (in words) (APP23 transgenic mice [5]) | Aβ production (in words) (Aβ production) | tolerability of regimen (in words) ([6]; 400 mg Thalidomide, non-elderly subjects with other conditions, without dose-related, severe or serious adverse events) | maximum tolerable doses ([6]; human, in vivo) | effect on BACE1 enzymatic activity assay (in words) (BACE1 [7])
1 | O=C1CCC(N2C(=O)c3ccccc3C2=O)C(=O)N1 (centres unmarked) [Thalidomide] | 3.91 /section | reduced; also recorded: fewer Aβ plaques | reduced | 42 | reduced | decreased neuronal loss | alleviated | significant reduction | tolerated | 400-800 mg/daily | 
2 | ZVAD (Ome)-CH2F |  |  |  |  |  |  |  |  |  |  | did not perturb activity
